# Earlier results, collected in patent US20140205688A1, “STIMULATING AGENT AND STIMULATING COMPOSITION” (priority 2011, published 2014).
# Tested on: humans
# Settings: humans took in / absorbed the substance
row,SMILES,amplitude of CNV
1,O=C1CN=C(c2ccccc2)c2cc([N+](=O)[O-])ccc2N1 [Nitrazepam],declined
2,Cn1c(=O)c2c(ncn2C)n(C)c1=O [caffeine],increased
